According to publication PMC6017830, “Furan- and Thiophene-2-Carbonyl Amino Acid Derivatives Activate Hypoxia-Inducible Factor via Inhibition of Factor Inhibiting Hypoxia-Inducible Factor-1” (Molecules : A Journal of Synthetic Chemistry and Natural …, 2018):

What was measured:
SKN:HRE-MLuc cells = experiment: MTS assay (cellular toxicity); format: cell-based, human; conditions: MTS assay
Source text: Next, we evaluated the activation of HIF by furan- and thiophene-2-carbonyl amino acid derivatives using the evaluation methods described above. Simultaneously, we investigated cellular toxicity for those derivatives with a 3-(4,5-dimethylthiazol-2-yl)-5-(3-carboxymethoxyphenyl)-2-(4-sulfophenyl)-2H-tetrazolium (MTS) assay. To indicate cellular membrane permeability, the partition coefficients, which are frequently represented by calculated logP (clogP) are listed in Table 1 and Table 2.
Cellular toxicity was measured using the CellTiter 96® Aqueous One Solution Cell Proliferation Assay kit (Promega, Madison, WI, USA). The cells were stimulated with each compound and treated with the CellTiter solution. After incubation for 3 h, the absorbance of the solutions at 492 nm was measured by Multiskan FC (Thermo Fisher Scientific, Waltham, MS, USA). As a negative control, wells with culture media were used. Wells treated with DMSO (0.1%) were used as a positive control. The IC50 values were determined using these controls.

[1] = system: HIF-HRE transcriptional activity in SKN:HRE-MLuc cells (reflects FIH-1 inhibition); experiment: HIF activity under hypoxia, HRE-MLuc luciferase reporter assay; format: cell-based, human; conditions: for activation at 100 µM / minimal effective concentration: Homo sapiens; for activation at 100 µM: read-out: 100 μM Activity (RLU intensity at 100 μM stimulation compared with the positive control DMOG); for minimal effective concentration: doses 100, 25, 6.3, 1.6 μM, DMOG 100 μM as positive control, read-out: 25% Activity (lower dose limit showing 25% of the RLU intensity of the positive control DMOG); for HIF activity (HRE-MLuc reporter), result in words: hypoxic conditions (3% O2), 24 h, reference compounds at 100 μM
Procedure: To evaluate HIF transactivation following FIH-1 inhibition […], we employed a luciferase reporter assay system in the human neuroblastoma cell line SK-N-BE(2)c. […] Hereafter these HRE reporter cells were designated SKN:HRE-MLuc cells.
SKN:HRE-MLuc (4 × 10^4) were incubated for 24 h on a 96 well culture plate. The medium was replaced with complete media and the test compounds (100, 25, 6.3 and 1.6 μM). DMSO (0.1%) was used as a vehicle control, DMOG (100 μM) and FG4592 (100 μM) were used as a PHDs or FIH-1 inhibitor. The cells were incubated for 24 h under a humidified atmosphere of 5% CO2 and 3% O2 at 37 °C. After incubation, the MLuc activity in culture media was measured with luciferase substrate (Takara, Shiga, Japan) by LB960 luminometer (Berthold, Wildbad, Germany). The HIF activity was calculated as the MLuc intensity, based on the vehicle and positive controls. The lower limit dose out of 100 μM, 25 μM, 6.3 μM, 1.6 μM was listed in Table 1 and Table 2, where 25% RLU intensity was measured using DMOG as a positive control.

[2] = 100 μM, SKN:HRE-MLuc cells, 3% O2, 24 h
[3] = SKN:HRE-MLuc cells, 3% O2, 24 h

Molecule	IC50 (SKN:HRE-MLuc cells; Homo sapiens)	activation at 100 µM [1, 2]	minimal effective concentration [1, 3]	HIF activity (HRE-MLuc reporter), result in words [1]	IC50 (SKN:HRE-MLuc cells)	100 μM Activity (RLU intensity at 100 μM stimulation compared with the positive control DMOG) [1, 2]
COC(=O)CNC(=O)c1ccco1 [Compound 1, Methyl (furan-2-carbonyl)glycinate]	> 100 µM	20%	25 µM	stabilized HIF and transactivated the HRE-driven MLuc reporter		
COC(=O)CNC(=O)c1cccs1 [Compound 2, Methyl (thiophene-2-carbonyl)glycinate]	> 100 µM	0%				
COC(=O)[C@H](Cc1c[nH]c2ccccc12)NC(=O)c1ccco1 [Compound 3, (S)-Methyl (furan-2-carbonyl)tryptophanate]	> 100 µM	0%				
COC(=O)[C@@H](Cc1c[nH]c2ccccc12)NC(=O)c1ccco1 [Compound 4, (R)-Methyl (furan-2-carbonyl)tryptophanate]	> 100 µM	0%				
COC(=O)[C@H](Cc1c[nH]c2ccccc12)NC(=O)c1cccs1 [Compound 5, (S)-Methyl (thiophene-2-carbonyl)tryptophanate]	> 100 µM	0%				
COC(=O)[C@@H](Cc1c[nH]c2ccccc12)NC(=O)c1cccs1 [Compound 6, (R)-Methyl (thiophene-2-carbonyl)tryptophanate]	> 100 µM	0%				
COC(=O)[C@@H](Cc1ccccc1)NC(=O)c1ccc(C)o1 [Compound 8, (R)-Methyl (5-methylfuran-2-carbonyl)phenylalaninate]	> 100 µM	2%				
COC(=O)[C@@H](Cc1c[nH]c2ccccc12)NC(=O)c1ccc(C)o1 [Compound 10, (R)-Methyl (5-methylfuran-2-carbonyl)tryptophanate]	> 100 µM	0%	6.3 µM			
Cc1ccc(C(=O)NCC(=O)O)s1 [Compound 11, (5-Methylthiophene-2-carbonyl)glycine]	> 100 µM	23%	25 µM			
Cc1ccc(C(=O)N[C@@H](C)C(=O)O)s1 [Compound 12, (S)-(5-Methylthiophene-2-carbonyl)alanine]	> 100 µM	18%				
CCOC(=O)[C@H](C)NC(=O)c1ccc(C)s1 [Compound 13, (S)-Ethyl (5-methylthiophene-2-carbonyl)alaninate]	> 100 µM	0%				
COC(=O)[C@@H](Cc1ccccc1)NC(=O)c1ccc(C)s1 [Compound 14, (R)-Methyl (5-methylthiophene-2-carbonyl)phenylalaninate]	> 100 µM	0%				
CCOC(=O)[C@H](Cc1ccccc1)NC(=O)c1ccc(C)s1 [Compound 15, (S)-Ethyl (5-methylthiophene-2-carbonyl)phenylalaninate]	> 100 µM	12%	25 µM			
Cc1ccc(C(=O)N[C@H](Cc2c[nH]c3ccccc23)C(=O)O)s1 [Compound 16, (R)-(5-methylthiophene-2-carbonyl)tryptophan]	> 100 µM	30%	100 µM			
CCOC(=O)[C@H](Cc1c[nH]c2ccccc12)NC(=O)c1ccc(C)s1 [Compound 17, (S)-Ethyl (5-methylthiophene-2-carbonyl)tryptophanate]	> 100 µM	49%	100 µM			
CCOC(=O)[C@@H](Cc1c[nH]c2ccccc12)NC(=O)c1ccc(C)s1 [Compound 18, (R)-Ethyl (5-methylthiophene-2-carbonyl)tryptophanate]	> 100 µM	52%	100 µM			
O=C(N[C@@H](Cc1ccccc1)C(=O)O)c1ccc(-c2ccccc2)o1 [Compound 19, (S)-(5-Phenylfuran-2-carbonyl)phenylalanine]	> 100 µM	0%				
COC(=O)[C@H](Cc1ccccc1)NC(=O)c1ccc(-c2ccccc2)o1 [Compound 20, (S)-Methyl (5-phenylfuran-2-carbonyl)phenylalaninate]	> 100 µM	10%				

Molecule	IC50 (SKN:HRE-MLuc cells; Homo sapiens)	activation at 100 µM [1, 2]	minimal effective concentration [1, 3]	HIF activity (HRE-MLuc reporter), result in words [1]	IC50 (SKN:HRE-MLuc cells)	100 μM Activity (RLU intensity at 100 μM stimulation compared with the positive control DMOG) [1, 2]
C[C@H](NC(=O)c1ccc(-c2ccccc2)s1)C(=O)O [Compound 21, (S)-(5-Phenylthiophene-2-carbonyl)alanine]	> 100 µM	0%				
CCOC(=O)[C@H](C)NC(=O)c1ccc(-c2ccccc2)s1 [Compound 22, (S)-Ethyl (5-phenylthiophene-2-carbonyl)alaninate]	> 100 µM	16%				
O=C(N[C@@H](Cc1ccccc1)C(=O)O)c1ccc(-c2ccccc2)s1 [Compound 23, (S)-(5-Phenylthiophene-2-carbonyl)phenylalanine]	> 100 µM	0%				
COC(=O)[C@H](Cc1ccccc1)NC(=O)c1ccc(-c2ccccc2)s1 [Compound 24, (S)-Methyl (5-phenylthiophene-2-carbonyl)phenylalaninate]	> 100 µM	7%				
COC(=O)[C@H](Cc1c[nH]c2ccccc12)NC(=O)c1ccc(-c2ccccc2)s1 [Compound 25, (S)-Methyl (5-phenylthiophene-2-carbonyl)tryptophanate]	> 100 µM	0%				
CCOC(=O)[C@H](Cc1ccccc1)NC(=O)c1ccc(-c2ccc(-c3ccccc3)cc2)s1 [Compound 32, (S)-Ethyl (5-((1,1′-biphenyl)-4-yl)thiophene-2-carbonyl)phenylalaninate]	> 100 µM	0%				
COC(=O)CNC(=O)c1ccc(-c2ccc(Oc3ccccc3)cc2)s1 [Compound 33, Methyl (5-(4-phenoxyphenyl)thiophene-2-carbonyl)glycinate]	> 100 µM	0%				
COC(=O)[C@H](C)NC(=O)c1ccc(-c2ccc(Oc3ccccc3)cc2)s1 [Compound 34, (S)-Methyl (5-(4-phenoxyphenyl)thiophene-2-carbonyl)alaninate]	> 100 µM	0%				
CCOC(=O)[C@H](Cc1ccccc1)NC(=O)c1ccc(-c2ccc(Oc3ccccc3)cc2)s1 [Compound 35, (S)-Ethyl (5-(4-phenoxyphenyl)thiophene-2-carbonyl)phenylalaninate]	> 100 µM	0%				
COC(=O)[C@H](Cc1c[nH]c2ccccc12)NC(=O)c1ccc(-c2ccc(Oc3ccccc3)cc2)s1 [Compound 36, (S)-Methyl (5-(4-phenoxyphenyl)thiophene-2-carbonyl)tryptophanate]	> 100 µM	0%				
CCOC(=O)[C@H](Cc1ccccc1)NC(=O)c1cc2ccccc2o1 [Compound 37, (S)-Ethyl (benzofuran-2-carbonyl)phenylalaninate]	> 100 µM	0%				
COC(=O)CNC(=O)c1cc2ccccc2s1 [Compound 39, Methyl (benzothiophene-2-carbonyl)glycinate]	> 100 µM	13%				
CCOC(=O)[C@H](C)NC(=O)c1cc2ccccc2s1 [Compound 40, (S)-Ethyl (benzothiophene-2-carbonyl)alaninate]	> 100 µM	0%				
CCOC(=O)[C@H](Cc1ccccc1)NC(=O)c1cc2ccccc2s1 [Compound 41, (S)-Ethyl (benzothiophene-2-carbonyl)phenylalaninate]	> 100 µM	2%				
COC(=O)[C@H](Cc1c[nH]c2ccccc12)NC(=O)c1cc2ccccc2s1 [Compound 43, (S)-Methyl (benzothiophene-2-carbonyl)tryptophanate]	> 100 µM	0%				
COC(=O)[C@H](Cc1ccc(O)cc1)NC(=O)c1cc2ccccc2s1 [Compound 44, (S)-Methyl (benzothiophene-2-carbonyl)tyrosinate]	> 100 µM	0%				
COC(=O)C(=O)N[C@H](Cc1ccccc1)C(=O)OC [DM-NOFD, dimethyl N-oxalyl-D-phenylalanine, reference compound]				significantly enhanced HIF activity		
(R)-Ethyl (benzothiophene-2-carbonyl)phenylalaninate [Compound 42]					> 100 µM	0%
